{"source": "patent US20240093034A1", "about": "“FLUORESCENT DYES” (EXOPHARM LIMITED, priority 2020, published 2024)", "key": {"platelet-derived EVs": {"test_system": "platelet-derived EVs", "experiment": "Labelling of extracellular vesicles with dyes (Superose 6 HPLC, UV and FLD detection)", "details": "EV + 2 μM dye", "experimental": "Labelling of extracellular vesicles (EVs) with dyes 1-10 was performed according to the following procedure. 20 μL of platelet-derived EVs were incubated in HPLC vials with or without each dye at a final concentration of 2 μM dye, the dye stock solution being made up in water. For negative controls, an equivalent volume of the diluent solution was added to the EV solution. The sample was mixed gently. Each sample was subsequently incubated for 1 hr at 37° C. Samples were transferred and stored in the autosampler set at 4° C. A batch table was setup that injected unlabelled EVs prior to labelled EVs. A blank injection was run after each labelled EV experiment to ensure there was no carryover. 15 μL of each sample was injected onto a Superose 6 Increase column (3.2/300) from Cytiva. The flow rate was set at 0.15 mL min* The Shimadzu BioHPLC was run in isocratic mode with Buffer A: 1× PBS (phosphate-buffered saline), pH 7.4, 100 nm filtered. The column oven temperature was set at 30° C. Total run duration was 30 min. Data was collected using two detectors. The PDA (UV detector) was set to scan from 190-800 nm and a channel of the FLD (fluorescence detector) was set at 562 nm/583 nm (Ex/Em). Titration experiments were conducted to confirm that excess dye was removed. The areas of the void peaks from the 214 nm absorption and the 583 nm emission were calculated by the LabSolutions software using the manual integration function. To normalise the fluorescent signal, the total fluorescent area was divided by the UV 214 nm area. This ratio can be used to rank each dye, with higher ratios indicative of greater incorporation."}, "MSC-EVs": {"test_system": "MSC-EVs", "experiment": "Dye labelling of MSC-EV preparations analysed by imaging flow cytometry (IFCM)", "experimental": "MSC-EVs were prepared form human platelet lysate containing MSC-conditioned media by polyethylene glycol 6000 precipitation followed by ultracentrifugation, as described previously (Borger, V. et al, 2020, Scaled Isolation of Mesenchymal Stem/Stromal Cell-Derived Extracellular Vesicles. Curr Protoc Stem Cell Biol 55, e128; Kordelas et al., 2014, MSC-derived exosomes: a novel tool to treat therapy-refractory graft-versus-host disease. Leukemia 28, 970-973; Ludwig et al., 2018, Precipitation with polyethylene glycol followed by washing and pelleting by ultracentrifugation enriches extracellular vesicles from tissue culture supernatants in small and large scales. J Extracell Vesicles 7, 1528109). Conditioned media were harvested every 48 h. Obtained MSC-EV preparations were diluted in NaCl-HEPES buffer (Sigma-Aldrich, Taufkirchen, Germany) such that 1 mL of final samples contained the preparation yield of the conditioned media of approximately 4.0×10^7 cells.\nThe staining with CFSE (Thermo Fisher Scientific, Darmstadt, Germany) was based on the manufacturer's protocol. Slight modifications were required to reduce the signal from unbound CFSE. Briefly, the CFSE stock solution was diluted to a working solution of 10 μM CFSE. The solution was centrifuged three times for 10 min at 17,000 × g. Subsequently, 25 μL of MSC-EV preparations, corresponding to the amount of EVs derived from 1×10^6 MSCs, were incubated with the centrifuged CFSE solution for 20 min at 37° C. The sample was diluted 1:20 to a final volume of 1 mL prior to analysis.\nThe staining of MSC-EV preparations with Calcein AM followed the manufacturer's instructions. Briefly, 25 μL of MSC-EV preparations were incubated with 25 μL of a 20 μM solution of Calcein AM (Thermo Fisher Scientific) for 40 min at 37° C. The sample was diluted 1:20 to a final volume of 1 mL to reduce background noise, avoiding the requirement of a washing step.\nThe staining of MSC-EV preparations with BODIPY-TR-Ceramide followed the manufacturer's instructions. Briefly, 25 μL of the MSC-EV preparation, corresponding to EVs purified from […], were incubated with 25 μL of a 20 μM solution of BODIPY TR Ceramide (Thermo Fisher Scientific) for 20 min at 37° C. 450 μL of 0.9% NaCl with 10mM HEPES (0.9% NaCl, Melsungen, B. Braun; HEPES, Thermo Fisher Scientific) buffer was added and the EVs were washed by using a Centrifugal Concentrator (Vivaspin 500; Sartorius, Gottingen, Germany). The retentate was adjusted to 500 μL prior to analysis.\nThe staining of MSC-EV preparations with PKH67 followed the manufacturer's instructions for labeling EVs (Thermo Fisher Scientific). Briefly, using 200 μL of given MSC-EV preparations, corresponding to EVs purified from 8×10^6 cells, the solution was adjusted with Diluent C to a final volume of 1 mL. […]"}}}
{"smiles": "CCCCCCCCCCCCCCCCCCN(C)C(=O)c1ccccc1-c1c2ccc(=[N+](CC)CC)cc-2oc2cc(N(CC)CC)ccc12.[Cl-]", "note": "[Dye 2, Rhodamine B N-methyloctadecylamide]", "values": [{"measurement": "FLD area (EV + dye)", "setting": "platelet-derived EVs; 1 hr 37° C., void peak area, 562 nm/583 nm (Ex/Em)", "result": 2493643}, {"measurement": "Area FLD/Area UV (EV + dye)", "setting": "platelet-derived EVs; higher ratio = greater incorporation", "result": 4.50}, {"measurement": "labelling of sEVs in MSC-EV preparations (conclusion)", "setting": "MSC-EVs; IFCM, with anti-CD9, anti-CD63, anti-CD81 counterstaining where done", "result": "successfully labels most of the sEVs"}, {"measurement": "labelled objects in MSC-EV preparations (FIG. 8)", "setting": "MSC-EVs; dye + MSC-EVs", "result": "solid populations of labelled objects were observed"}]}
